The record followed here is paper PMC7956620 (Molecules, 2021).

Each structure is given as a SMILES string.

This test deals with T1, 5-HT3A receptor Y91A mutant (Homo sapiens, UniProt P46098, Y86A).
T1 construct: host or cells: Xenopus laevis oocytes injected with in vitro transcribed mRNA
T1 sequence (P46098 24-478 Y86A): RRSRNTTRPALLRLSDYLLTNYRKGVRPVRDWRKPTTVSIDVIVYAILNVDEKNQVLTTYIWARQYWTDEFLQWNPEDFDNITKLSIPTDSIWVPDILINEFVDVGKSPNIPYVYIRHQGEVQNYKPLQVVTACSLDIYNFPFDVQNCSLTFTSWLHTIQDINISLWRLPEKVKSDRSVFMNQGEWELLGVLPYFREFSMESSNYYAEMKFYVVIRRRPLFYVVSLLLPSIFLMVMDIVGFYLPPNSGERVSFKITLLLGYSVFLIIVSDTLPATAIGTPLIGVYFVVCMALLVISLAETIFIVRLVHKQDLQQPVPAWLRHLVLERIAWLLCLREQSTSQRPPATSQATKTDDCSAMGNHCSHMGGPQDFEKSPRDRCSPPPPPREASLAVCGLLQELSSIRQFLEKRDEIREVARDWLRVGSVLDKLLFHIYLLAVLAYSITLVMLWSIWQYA
Put plainly: two-electrode voltage clamp, Y91A mutant receptor in Xenopus oocytes. The following applies: 100 µM chanoclavine, read-out: Inhibition Percentage (%). The class given is cell-based. The method, then: The site-directed mutation of one or two amino acids was performed using sense and antisense primers and Pfu polymerase (QuickChange Site-Directed Mutagenesis Kit; Agilent, Santa Clara, CA, USA) and amplified by polymerase chain reaction (PCR) to increase the target domain. After removing the existing methylated cDNA using Dpn Ⅰ, the PCR products were transformed into Escherichia coli strain DH5α. The cDNA of the 5-HT3A receptor was linearized by Xho Ⅰ at the end of the multi-cloning site, followed by transcription using T7 polymerase and a transcription kit (mMESSAGE mMACHINE T7 Transcription Kit; Thermo Fisher Scientific, Waltham, MA, USA). […]
To isolate oocytes, female Xenopus laevis were put into a container filled with ice and left for about one hour. […] When the Xenopus oocytes were ready for injection, 50 ng of mRNA was injected with a nanoliter injector (Drummond Scientific, Vernon Hills, IL, USA). […]
The oocytes in which mRNA was expressed during the incubation period allowed for the estimation of channel or receptor properties for observing drug and ligand potential interactions using a two-electrode voltage clamp (OC-725C; Warner Instruments, Hamden, CT, USA) and Digidata (1322A; Molecular Devices, Sunnyvale, CA, USA). […] The voltage and current electrodes were filled with 3 M KCl (0.3–0.7 MΩ) and analyzed at a −80 mV holding potential. […]

Consider `CN[C@@H]1Cc2c[nH]c3cccc(c23)[C@H]1/C=C(\C)CO` [chanoclavine], for which the inhibition at 100 µM worked out at 50.2 ± 5.1%.
